Assay results reported in patent US20030211170A1, “Use of physiologically acceptable vanadium compounds, salts and complexes” (GHO'ST HOLDING B.V., priority 1997, published 2003).

Tests used:
[1] = tested on: deep burn wounds (skin/dermis structures); assay: Deep burn wound model in the Yorkshire pig; assay type: in vivo, Yorkshire White; settings: administered intravenously in a single dose
From the text: The Yorkshire pig has been chosen as the experimental animal because of all animal species this domestic pig seems to be the one with morphological and functional skin characteristics nearest to human skin and so best fulfils the requirements of a model for human skin. In basic architecture it resembles human skin in the relative thickness of the epidermis and dermis, the presence of epidermal ridges, a distinct dermal papillary layer and a deep layer of subdermal fat. Compared to human the elastic fibre content of porcine dermis is relatively low, but higher than in any other species. […] Studies on the proliferation rate of porcine epidermis show parallels with those of humans. The keratinous proteins are similar. Unlike the skin of rodents, the follicular pattern in pigs and humans is relatively sparse and arranged as single hairs or in groups of two or three follicles. […] The regulation of body temperature by the skin is more evident in humans than in the pig. In the skin of the pig no eccrine glands are found. It does have apocrine glands, but their role in thermoregulation remains debatable. The vascular anatomy of pig skin consists of a three layered network; lower, mid-dermal and sub epidermal. The size, orientation and distribution of the vessels are strikingly similar to human skin, but it does differ from humans in that the sub epidermal network is less dense. The vascularisation of the lower region of the follicle corresponds to that in humans. The healing of deep dermal burns, which depends on this phenomenon, might also be analogous. Studies on the thermal properties of porcine skin as a function of depth have been performed by measuring the tissue water content.
Protocol 1a: Twelve identical deep burn wounds were inflicted in each animal. The animal model used is developed in the Burn Research Institute (Beverwijk, The Netherlands) and is a standard for all of the experimental burn wound research. The model is also accepted by the animal experimental commission of the University of Amsterdam. […]

[2] = tested on: hearts of phenobarbital anaesthetized rats (myocardial tissue); assay: Infarct size after 60 minutes coronary artery occlusion and 180 minutes of reperfusion in anaesthetized rats; assay type: in vivo, rat; settings: normothermia (36.5-37.5° C.), 3.3 mg/kg bodyweight i.v. bolus in 10 minutes, 25 minutes prior to CAO, 60 min CAO, 180 min reperfusion, mean ± standard error margin, n=6, P<0.001 vs control (69±2%)
Description: Area at risk (AR) and infarcted area (IA) were determined in hearts of phenobarbital anaesthetized rats after 60 minutes coronary artery occlusion (CAO) and 180 minutes of reperfusion. […] The mean AR expressed as percentage of the left yentricle was not different between the control and the experimental group (42±2% and 42±3%, respectively).

Cc1occc(=O)c1[O-].Cc1occc(=O)c1[O-].[O]=[V+2] [bis(maltolato)oxovanadium(IV)]
contractions of scars [1]: considerably reduced | healing of burn wounds [1]: faster healing | structures present in the dermis (deep vascular plexus, hair-adnexes (sebaceous glands), sweat glands) [1]: protected | IA/AR ratio (infarcted area / area at risk) [2]: 45±3%
